Assay results reported in BindingDB's records for doi:10.1021/jm950639r (Eli Lilly, 1996).
pIC50: −log10 of the molar value.

Tests used:
Assay in all cases: HIV-1 RT Assay
[1] = molecular target: T1, Gag-Pol polyprotein [588-1127,L687I]/[588-1147,L687I] (Human immunodeficiency virus 1, UniProt P04585, L687I)
T1 construct: 588-1127; 588-1147

[2] = molecular target: T2, Gag-Pol polyprotein [588-1027]/[588-1147] (Human immunodeficiency virus 1, UniProt P04585)
T2 construct: 588-1027; 588-1147

[3] = molecular target: T3, Gag-Pol polyprotein [588-1127,Y768C]/[588-1147,Y768C] (Human immunodeficiency virus 1, UniProt P04585, Y768C)
T3 construct: 588-1127; 588-1147

Structure (SMILES) | pIC50 [1] | pIC50 [3] | other results
S=C(NCCc1c[nH]c2ccccc12)Nc1ccc(Br)cn1 [1-(5-bromopyridin-2-yl)-3-[2-(1H-indol-3-yl)ethyl]thiourea] | < 5.60 | – | –
CCOc1ccc(OCC)c(CCNC(=S)Nc2ccc(Br)cn2)c1 [1-(5-bromopyridin-2-yl)-3-[2-(2,5-diethoxyphenyl)ethyl]thiourea] | – | – | pIC50 [2]: 7.74
Cc1cc2nn(CCNC(=S)Nc3ccc(Br)cn3)nc2cc1C [1-(5-bromopyridin-2-yl)-3-[2-(5,6-dimethyl-2H-1,2,3-benzotriazol-2-yl)ethyl]thiourea] | < 5.60 | 7.00 | –
COc1ccc2[nH]cc(CC/N=C(\S)Nc3ccc(Br)cn3)c2c1 [1-(5-bromopyridin-2-yl)-3-[2-(5-methoxy-1H-indol-3-yl)ethyl]thiourea] | < 5.60 | – | –
COCc1ccc(F)c(CCNC(=S)Nc2ccc(Br)cn2)c1F [1-(5-bromopyridin-2-yl)-3-{2-[2,6-difluoro-3-(methoxymethyl)phenyl]ethyl}thiourea] | – | – | pIC50 ([3]; pH 7.8, 37 °C): 7.00
CCOc1ccc(F)c(CCNC(=S)Nc2ncc(C(F)(F)F)s2)c1Cl [1-[2-(2-chloro-3-ethoxy-6-fluorophenyl)ethyl]-3-[5-(trifluoromethyl)-1,3-thiazol-2-yl]thiourea] | 5.15 | 5.15 | pIC50 [2]: 7.33
CNC(=O)c1ccc(F)c(CC/N=C(\S)Nc2ccc(Br)cn2)c1F [3-(2-{[(5-bromopyridin-2-yl)carbamothioyl]amino}ethyl)-2,4-difluoro-N-methylbenzamide] | – | – | pIC50 ([3]; pH 7.8, 37 °C): < 5.70; pIC50 ([1]; pH 7.8, 37 °C): < 5.70
S=C(NCCn1nc2ccccc2n1)Nc1ccc(Br)cn1 [3-[2-(2H-1,2,3-benzotriazol-2-yl)ethyl]-1-(5-bromopyridin-2-yl)thiourea] | – | 7.00 | –
CC(C)=CCN1Cc2cc(Cl)cc3[nH]c(=S)n(c23)C[C@@H]1C [(11S)-6-chloro-11-methyl-10-(3-methylbut-2-en-1-yl)-1,3,10-triazatricyclo[6.4.1.0^{4,13}]trideca-4,6,8(13)-triene-2-thione] | 4.49 | 4.89 | –
S=C(NCCc1nc2ccccc2[nH]1)Nc1ccc(Br)cn1 [N-[2-(2-Benzimidazolyl)ethyl]-N-[2-(5-bromopyridyl)]-thiourea] | < 5.60 | 5.73 | pIC50 [2]: 7.68
CC(=O)NCc1ccc(F)c(CCNC(=S)Nc2ccc(Br)cn2)c1F [N-[2-(3-(Acetamidomethyl)-2,6-difluorophenethyl)]-N-[2-(5-bromopyridyl)]thiourea] | – | – | pIC50 ([3]; pH 7.8, 37 °C): < 5.70; pIC50 ([1]; pH 7.8, 37 °C): < 5.70
